Data published in patent publication US8217035B2, “Pyrimidine derivatives used as PI-3-kinase inhibitors” (Novartis AG, priority 2006, dated 2012).
Where two headings read alike, the source gives them in different places.

Biological target: PI3 kinase alpha (Homo sapiens, UniProt P42336)
Experiment: PI3K ATP depletion assay (Biological Method 1, Assay 3; KinaseGlo luminescence)
Type: biochemical
Method: The PI3 kinase alpha IC50 values shown in Table 1 were determined according to the ATP depletion assay as disclosed herein in Biological Method 1.
Assay 3: ATP Depletion Assay
Compounds to be tested are dissolved in DMSO and directly distributed into a black 384-well plate at 1.25 μL per well. To start the reaction, 25 μL of 10 nM PI3 kinase and 5 μg/mL 1-alpha-phosphatidylinositol (PI) are added into each well followed by 25 μL of 2 μM ATP. The reaction is performed until approx 50% of the ATP is depleted, and then stopped by the addition of 25 μL of KinaseGlo solution purchased from Promega. The stopped reaction is incubated for 5 minutes and the remaining ATP is then detected via luminescence.

[1] = ATP depletion assay, Biological Method 1, read-out: PI3 Kinase Alpha, IC50
[2] = ATP depletion assay, read-out: PI3 Kinase Alpha, IC50

Chain of PI3 kinase alpha (P42336 whole entry): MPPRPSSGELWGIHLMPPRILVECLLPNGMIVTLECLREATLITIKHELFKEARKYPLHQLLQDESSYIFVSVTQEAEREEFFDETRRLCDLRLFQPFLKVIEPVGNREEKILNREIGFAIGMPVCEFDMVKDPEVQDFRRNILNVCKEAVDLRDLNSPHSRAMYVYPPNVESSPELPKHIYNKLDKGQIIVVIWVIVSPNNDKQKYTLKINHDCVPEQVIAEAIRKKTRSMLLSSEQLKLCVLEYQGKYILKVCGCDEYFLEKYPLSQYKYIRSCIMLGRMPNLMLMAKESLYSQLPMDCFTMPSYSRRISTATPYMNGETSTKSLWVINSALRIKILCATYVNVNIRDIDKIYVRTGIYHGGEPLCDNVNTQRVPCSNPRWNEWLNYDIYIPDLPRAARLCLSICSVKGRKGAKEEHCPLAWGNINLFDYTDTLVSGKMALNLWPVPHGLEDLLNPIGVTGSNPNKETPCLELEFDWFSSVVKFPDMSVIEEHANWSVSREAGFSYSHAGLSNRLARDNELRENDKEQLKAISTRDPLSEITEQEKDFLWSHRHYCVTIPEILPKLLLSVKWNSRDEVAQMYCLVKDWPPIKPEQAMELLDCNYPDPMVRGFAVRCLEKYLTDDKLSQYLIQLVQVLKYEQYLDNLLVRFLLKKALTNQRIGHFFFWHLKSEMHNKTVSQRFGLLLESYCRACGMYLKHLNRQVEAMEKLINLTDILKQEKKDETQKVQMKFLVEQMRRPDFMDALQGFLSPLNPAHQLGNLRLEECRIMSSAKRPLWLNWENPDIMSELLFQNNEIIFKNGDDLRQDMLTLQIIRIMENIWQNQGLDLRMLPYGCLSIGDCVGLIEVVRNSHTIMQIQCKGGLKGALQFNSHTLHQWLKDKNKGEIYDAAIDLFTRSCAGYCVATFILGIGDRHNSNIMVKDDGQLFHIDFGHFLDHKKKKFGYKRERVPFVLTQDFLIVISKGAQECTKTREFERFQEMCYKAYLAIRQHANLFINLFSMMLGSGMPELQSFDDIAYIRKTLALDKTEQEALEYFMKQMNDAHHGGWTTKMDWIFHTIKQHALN
Chain of PI3 kinase alpha (P27986 whole entry partner): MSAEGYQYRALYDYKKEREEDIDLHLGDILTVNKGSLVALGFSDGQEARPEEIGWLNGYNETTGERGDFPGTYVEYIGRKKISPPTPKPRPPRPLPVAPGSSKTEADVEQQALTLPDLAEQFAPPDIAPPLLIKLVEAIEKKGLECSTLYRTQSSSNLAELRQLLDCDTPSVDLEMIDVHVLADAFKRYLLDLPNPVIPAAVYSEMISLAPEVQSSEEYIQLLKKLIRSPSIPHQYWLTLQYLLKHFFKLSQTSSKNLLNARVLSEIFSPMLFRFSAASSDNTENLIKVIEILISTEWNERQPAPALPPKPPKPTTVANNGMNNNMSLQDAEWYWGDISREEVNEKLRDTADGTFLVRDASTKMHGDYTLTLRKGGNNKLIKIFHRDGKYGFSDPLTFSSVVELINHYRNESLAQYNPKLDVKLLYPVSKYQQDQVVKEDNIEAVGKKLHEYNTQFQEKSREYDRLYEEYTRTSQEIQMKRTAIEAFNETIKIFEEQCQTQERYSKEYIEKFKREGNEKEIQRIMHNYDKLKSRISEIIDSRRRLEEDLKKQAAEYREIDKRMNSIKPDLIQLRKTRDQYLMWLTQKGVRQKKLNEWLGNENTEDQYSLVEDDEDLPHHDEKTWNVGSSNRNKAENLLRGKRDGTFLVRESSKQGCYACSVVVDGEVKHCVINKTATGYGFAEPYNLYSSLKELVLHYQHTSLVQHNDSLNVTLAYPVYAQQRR

Row | SMILES | IC50 [1] | IC50 [2] | further results
1 | Nc1ccc(-c2cc(NCc3ccncc3)nc(N3CCOCC3)n2)cn1 [Compound 443] |  | < 1000 nM | 
2 | Nc1ccc(-c2cc(Nc3ccc4c(c3)NC(=O)CO4)nc(N3CCOCC3)n2)cn1 [Compound 381] | < 1000 nM |  | 
3 | CC(=O)Nc1cnc(N2CCOCC2)nc1-c1cnc(N)nc1 [Compound 256] | < 1000 nM |  | 
4 | CC(C)N1CCN(c2nc3ccccc3cc2-c2cc(-c3ccc(N)nc3)nc(N3CCOCC3)n2)CC1 [Compound 502] |  | < 10000 nM | 
5 | Nc1ncc(-c2cc(N[C@@H]3CCC[C@H]3OCc3ccccc3)nc(N3CCOCC3)n2)cn1 [Compound 398] |  | < 1000 nM | 
6 | Nc1ccc(-c2cc(NCCc3ccccn3)nc(N3CCOCC3)n2)cn1 [Compound 433] |  | < 10000 nM | 
7 | Nc1ncc(-c2cc(Nc3cnc4ccccc4c3)nc(N3CCOCC3)n2)c(OCCN2CCNCC2)n1 [Compound 272] | < 1000 nM |  | 
8 | Nc1ccc(-c2cc(-c3ccc(NCCN4CCCC4)nc3)nc(N3CCOCC3)n2)cn1 [Compound 506] |  | < 1000 nM | 
9 | Nc1ccc(-c2cc(NCCc3ccncc3)nc(N3CCOCC3)n2)cn1 [Compound 435] |  | < 10000 nM | 
10 | Nc1ncc(-c2nc(N3CCOCC3)ncc2C(=O)NCC2CC2)cn1 [Compound 419] |  | < 10000 nM | 
11 | Nc1cc(C(F)(F)F)c(-c2cc(N3CCC(F)CC3)nc(N3CCOCC3)n2)cn1 [Compound 487] |  | < 1000 nM | 
12 | N#Cc1cc(-c2cc(Nc3cnc4ccccc4c3)nc(N3CCOCC3)n2)cnc1N [Compound 366] | < 10000 nM |  | 
13 | Nc1ncc(-c2cc(N[C@H]3CN4CCC3CC4)nc(N3CCOCC3)n2)cn1 [Compound 519] |  | < 1000 nM | 
14 | Nc1ccc(-c2cc(NCc3ccccn3)nc(N3CCOCC3)n2)cn1 [Compound 444] |  | < 1000 nM | 
15 | CN1CCC(Oc2ncccc2-c2cc(-c3ccc(N)nc3)nc(N3CCOCC3)n2)C1 (stereo not drawn) [Compound 288] | < 10000 nM |  | 
16 | Cc1c(-c2cnc(N)nc2)nc(N2CCOCC2)nc1-c1ccccc1S(=O)(=O)NC(C)(C)C [Compound 547] |  | < 10000 nM | 
17 | Nc1cc(C(F)(F)F)c(-c2cc(N3CCOCC3c3ccc(F)cc3)nc(N3CCOCC3)n2)cn1 (stereo not drawn) [Compound 485] |  | < 1000 nM | 
18 | Nc1cc(C(F)(F)F)c(-c2cc(CNC(=O)OC3CCOC3)nc(N3CCOCC3)n2)cn1 (stereo not drawn) [Compound 542] |  | < 1000 nM | 
19 | Nc1ccc(-c2cc(-c3nnn[nH]3)nc(N3CCOCC3)n2)cn1 [Compound 309] | < 1000 nM |  | 

Row | SMILES | IC50 [1] | IC50 [2] | further results
20 | Nc1ccc(-c2cc(Nc3ccccc3-n3ccnc3)nc(N3CCOCC3)n2)cn1 [Compound 355] | < 1000 nM |  | 
21 | CC(=O)NCCNC(=O)c1cnc(N2CCOCC2)nc1-c1cnc(N)nc1 [Compound 423] |  | < 10000 nM | 
22 | Nc1ncc(-c2cc(N[C@@H]3CCCC[C@H]3OCc3ccccc3)nc(N3CCOCC3)n2)cn1 [Compound 397] | < 1000 nM |  | 
23 | Nc1ccc(-c2cc(Nc3cc4ccccc4nc3OCCN3CCCC3)nc(N3CCOCC3)n2)cn1 [Compound 286] | < 10000 nM |  | 
24 | Nc1ccc(-c2cc(Sc3ncc[nH]3)nc(N3CCOCC3)n2)cn1 [Compound 296] | < 10000 nM |  | 
25 | Nc1cc(C(F)(F)F)c(-c2cc(OC3CCNCC3)nc(N3CCOCC3)n2)cn1 [Compound 459] |  | < 1000 nM | 
26 | CC(=O)N1CCc2cccc(Nc3cc(-c4ccc(N)nc4)nc(N4CCOCC4)n3)c21 [Compound 354] | < 1000 nM |  | 
27 | Nc1ccc(-c2cc(N3CCNC(=O)C3)nc(N3CCOCC3)n2)cn1 [Compound 376] | < 10000 nM |  | 
28 | CN(C)CCCCNc1cc(-c2cnc(N)nc2)nc(N2CCOCC2)n1 [Compound 517] |  | < 10000 nM | 
29 | Cn1cnnc1Sc1cc(-c2ccc(N)nc2)nc(N2CCOCC2)n1 [Compound 293] | < 10000 nM |  | 
30 | Nc1ccc(-c2cc(N3CCOC(c4cccnc4)C3)nc(N3CCOCC3)n2)cn1 (stereo not drawn) [Compound 340] | < 1000 nM |  | 
31 | CC(=O)N1CC[C@@H](Oc2cc(-c3cnc(N)cc3C(F)(F)F)nc(N3CCOCC3)n2)C1 [Compound 23] |  | < 1000 nM | 
32 | CC(C)OC(=O)N1CC[C@@H](Oc2cc(-c3cnc(N)cc3C(F)(F)F)nc(N3CCOCC3)n2)C1 [Compound 538] |  | < 1000 nM | 
33 | Nc1ccc(-c2cc(NC(=O)c3cccnc3)nc(N3CCOCC3)n2)cn1 [Compound 297] | < 1000 nM |  | 
34 | Nc1ncc(-c2cc(N3CCC(C(F)(F)F)CC3)nc(N3CCOCC3)n2)cn1 [Compound 391] | < 1000 nM |  | 
35 | NC(=O)c1cc(-c2cnc(N)nc2)nc(N2CCOCC2)n1 [Compound 229] | < 1000 nM |  | 
36 | CC(C)C(=O)N1CC[C@H](Oc2cc(-c3cnc(N)cc3C(F)(F)F)nc(N3CCOCC3)n2)C1 [Compound 533] |  | < 10000 nM | 
37 | Cc1c(Nc2cnc3ccccc3c2)nc(N2CCOCC2)nc1-c1cnc(N)cc1C(F)(F)F [Compound 469] |  |  | IC50: < 1000 nM
38 | Nc1cc(C(F)(F)F)c(-c2nc(N3CCOCC3)nc(N3CCOCC3)c2Cl)cn1 [Compound 312] | < 1000 nM |  | 

Now from value to molecule, other results behind:

Row | IC50 [1] | IC50 [2] | SMILES | further results
39 | < 1000 nM |  | Nc1ncc(-c2cc(C(=O)O)nc(N3CCOCC3)n2)cn1 [Compound 236] | 
40 | < 1000 nM |  | Nc1ccc(-c2cc(-c3c[nH]nn3)nc(N3CCOCC3)n2)cn1 [Compound 310] | 
41 |  | < 1000 nM | Nc1ccc(-c2cc(NCc3cccnc3)nc(N3CCOCC3)n2)cn1 [Compound 445] | 
42 |  | < 1000 nM | Nc1ccc(-c2cc(Nc3cnc4ccc(OC(F)(F)F)cc4c3)nc(N3CCOCC3)n2)cn1 [Compound 496] | 
43 | < 10000 nM |  | CC(=O)Nc1ccccc1Nc1cc(-c2ccc(N)nc2)nc(N2CCOCC2)n1 [Compound 353] | 
44 |  | < 10000 nM | COCCNC(=O)c1cnc(N2CCOCC2)nc1-c1cnc(N)nc1 [Compound 424] | 
45 | < 1000 nM |  | Nc1cc(C(F)(F)F)c(-c2cc(N3CCOC4(CCCC4)C3)nc(N3CCOCC3)n2)cn1 [Compound 319] | 
46 |  | < 1000 nM | Nc1cc(C(F)(F)F)c(-c2cc(Nc3ccc(NCC(=O)O)nc3)nc(N3CCOCC3)n2)cn1 [Compound 490] | 
47 | < 1000 nM |  | Nc1ccc(-c2cc(NC(=O)C3CCCCC3)nc(N3CCOCC3)n2)cn1 [Compound 298] | 
48 |  | < 1000 nM | CC(C)N1CCN(c2ccc(-c3cc(-c4ccc(N)nc4)nc(N4CCOCC4)n3)cn2)CC1 [Compound 507] | 
49 |  | < 1000 nM | Nc1cc(C(F)(F)F)c(-c2cc(O[C@@H]3CCN(C(=O)c4ccccc4)C3)nc(N3CCOCC3)n2)cn1 [Compound 536] | 
50 |  | < 10000 nM | Nc1ccc(-c2nc(N3CCOCC3)ncc2C(F)(F)F)cn1 [Compound 473] | 
51 | < 1000 nM |  | Nc1ccc(-c2cc(Nc3cnccc3C(F)(F)F)nc(N3CCOCC3)n2)cn1 [Compound 385] | 
52 | < 1000 nM |  | Nc1ncc(-c2cc(N[C@H]3CCCC[C@@H]3OCc3ccccc3)nc(N3CCOCC3)n2)cn1 [Compound 395] | 
53 |  | < 10000 nM | CN(C)c1ncccc1-c1cc(-c2ccc(N)nc2)nc(N2CCOCC2)n1 [Compound 504] | 
54 |  | < 1000 nM | CC(C)C(=O)N1CC[C@@H](Oc2cc(-c3cnc(N)cc3C(F)(F)F)nc(N3CCOCC3)n2)C1 [Compound 537] | 
55 |  | < 1000 nM | COc1ccc(Nc2cc(-c3ccc(N)nc3)nc(N3CCOCC3)n2)cn1 [Compound 2] | 
56 |  | < 10000 nM | Nc1ncc(-c2nc(N3CCOCC3)ncc2C(=O)O)cn1 [Compound 430] | 
57 | < 10000 nM |  | Nc1ccc(-c2cc(NC3CCCCC3)nc(N3CCOCC3)n2)cn1 [Compound 373] | 
58 |  | < 1000 nM | Nc1ccc(-c2ccnc(N3CCOCC3)n2)cn1 [Compound 513] | 
59 |  | < 1000 nM | CS(=O)(=O)Nc1cc(N)ncc1-c1cc(Nc2cnc3ccccc3c2)nc(N2CCOCC2)n1 [Compound 492] | 
60 | < 1000 nM |  | CN(C)CCOc1ccc(-c2cc(-c3ccc(N)nc3)nc(N3CCOCC3)n2)cn1 [Compound 225] | 
